Eight molecules from ChEMBL document CHEMBL1201862, “PubChem BioAssay data set” (2004) can be followed below.

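Tested at 5 concentrations; 48 h exposure; 96-well plates; endpoints linearly interpolated, else capped at highest concentration. Here, GI50 denotes the concentration required for 50% inhibition of growth.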 The source made the active and inactive calls. No stated cut-off is given here; in the data, active = GI50 up to about 1.1 µM and inactive = higher. Residues, ends and D or L forms follow the SMILES beside them. Groups on a side chain read outwards from the residue. *: point of attachment. Cbz = O=C(OCc1ccccc1)*; Boc = CC(C)(C)OC(=O)* A value given as a limit tells only on which side of the number the result lay.

Some test systems named below: CCRF-CEM; HCT-116; MDA-N; KM12; SK-OV-3; TK-10; COLO 205; M14; K562; NCI/ADR-RES; BT-549; A549; 786-0; MOLT-4; Malme-3M; SF-295; OVCAR-4; RXF 393; LOX IMVI.
What all share (assay): NCI tumour cell line growth inhibition, 48 h

On to `O=C(Nc1ccc(Br)c2ccccc12)c1ccc2ccccc2c1O`, for which the GI50 was 2.86 µM (inactive) in the assay with CCRF-CEM; 2.85 µM (inactive) in the assay on HCT-116; 1.7 µM (inactive) with MDA-N; 2.9 µM (inactive) in the assay with KM12; 2.75 µM (inactive) with SK-OV-3; 3.19 µM (inactive) with TK-10. Moreover, the GI50 in the assay on COLO 205 is 2.11 µM (inactive); in the assay on M14, 4.63 µM (inactive); in the assay with K562, 2.55 µM (inactive); in the assay on NCI/ADR-RES, 2.72 µM (inactive); in the assay with BT-549, 2.83 µM (inactive); in the assay with A549, 1.77 µM (inactive). In addition, the GI50 in the assay on 786-0 is 3.94 µM (inactive); in the assay with MOLT-4 it was 2.32 µM (inactive); in the assay with Malme-3M, 1.36 µM (inactive); in the assay with SF-295 it was 2.05 µM (inactive); in the assay with OVCAR-4, 19.4 µM (inactive).
On to `C=CCN1C(=O)/C(=C/c2ccccc2)N=C1SC/C=C/C`, for which the GI50 was 27.9 µM (inactive) in the assay with CCRF-CEM; 34.5 µM (inactive) with HCT-116; 15.2 µM (inactive) with RXF 393; 37.4 µM (inactive) in the assay on KM12; > 100 µM (inactive) in the assay on SK-OV-3; 79.1 µM (inactive) in the assay on TK-10. Moreover, the GI50 is 49.1 µM (inactive) in the assay on LOX IMVI; 52.2 µM (inactive) in the assay on COLO 205; 71.1 µM (inactive) in the assay with M14; 0.0146 µM (active) in the assay on K562; 49.4 µM (inactive) in the assay with NCI/ADR-RES; 51.3 µM (inactive) in the assay on BT-549. In addition, the GI50 in the assay with A549 is 39.3 µM (inactive); with 786-0, 42.7 µM (inactive); in the assay on SF-295, 61.2 µM (inactive); in the assay on OVCAR-4, 31.2 µM (inactive).
As to `Cc1c(-c2ccccc2)n(C)c2cn[nH]c(=O)c12`, the GI50 is 40.2 µM (inactive) in the assay with CCRF-CEM; 35.9 µM (inactive) with HCT-116; 33.5 µM (inactive) in the assay on MDA-N; 37.5 µM (inactive) in the assay with KM12; 27.1 µM (inactive) with SK-OV-3; 41.4 µM (inactive) in the assay on TK-10. The GI50 in the assay with LOX IMVI was 18.7 µM (inactive); in the assay on COLO 205, 17.1 µM (inactive); in the assay with M14, 42.5 µM (inactive); in the assay on K562, 47.3 µM (inactive); with NCI/ADR-RES it was 26.7 µM (inactive); in the assay on BT-549, 32.3 µM (inactive). Also, the GI50 was 44.8 µM (inactive) with A549; 23.3 µM (inactive) with 786-0; 32.7 µM (inactive) in the assay on MOLT-4; 42.6 µM (inactive) in the assay on Malme-3M; 25.2 µM (inactive) with SF-295.
Consider `O=C1CSC(c2cccc([N+](=O)[O-])c2)N1c1ccc(-c2ccc(-n3c(-c4ccccc4)nc4ccccc4c3=O)cc2)cc1` (configuration not stated), for which the GI50 with CCRF-CEM was 23 µM (inactive); with HCT-116 it was 24.7 µM (inactive); in the assay with KM12 it was 21.8 µM (inactive); in the assay on SK-OV-3 it was > 100 µM (inactive); in the assay with TK-10, > 100 µM (inactive); in the assay with LOX IMVI, 34 µM (inactive). The GI50 in the assay with COLO 205 is 21.1 µM (inactive); in the assay on M14, 36.2 µM (inactive); in the assay on K562 it was 24.7 µM (inactive); in the assay with NCI/ADR-RES it was 37.2 µM (inactive); in the assay on BT-549 it was 23.3 µM (inactive); with A549, 34.6 µM (inactive). Moreover, the GI50 with 786-0 is 24.6 µM (inactive); in the assay on MOLT-4, 17.2 µM (inactive); in the assay on Malme-3M it was 29.8 µM (inactive); in the assay with SF-295, 45.8 µM (inactive); in the assay on OVCAR-4, 25.2 µM (inactive).
With `Cc1c(Cl)cccc1NC(=O)/C=C/c1ccccc1`, the GI50 with CCRF-CEM was > 100 µM (inactive); in the assay on HCT-116 it was > 100 µM (inactive); in the assay with MDA-N, > 100 µM (inactive); in the assay with KM12 it was 77.8 µM (inactive); in the assay with SK-OV-3 it was > 100 µM (inactive); in the assay on TK-10, > 100 µM (inactive). The GI50 with LOX IMVI, in the assay with COLO 205, in the assay on M14, in the assay on K562, in the assay on BT-549 and in the assay on A549 was > 100 µM (inactive) throughout. Also, the GI50 in the assay on 786-0 was 62.7 µM (inactive); with MOLT-4 it was > 100 µM (inactive); in the assay on Malme-3M, > 100 µM (inactive); in the assay on SF-295 it was > 100 µM (inactive); in the assay on OVCAR-4, > 100 µM (inactive).
As to `Cc1cc(C)n(-c2nc3ccccc3c(=O)[nH]2)n1`, the GI50 in the assay with CCRF-CEM was 0.356 µM (active); in the assay on HCT-116 it was 1.88 µM (inactive); in the assay with MDA-N, 32.6 µM (inactive); with KM12, 5.94 µM (inactive); in the assay on SK-OV-3 it was 8.65 µM (inactive); with TK-10, > 50.8 µM (inactive). Moreover, the GI50 is 1.41 µM (inactive) in the assay with LOX IMVI; 2.43 µM (inactive) in the assay on COLO 205; 3.75 µM (inactive) in the assay with M14; 1.64 µM (inactive) with K562; 1.53 µM (inactive) in the assay on NCI/ADR-RES; 18.8 µM (inactive) in the assay on BT-549. Besides, the GI50 in the assay with A549 was 2.95 µM (inactive); with 786-0 it was 2.24 µM (inactive); with MOLT-4, 1.6 µM (inactive); in the assay with SF-295, 2.1 µM (inactive); in the assay with OVCAR-4, 56.6 µM (inactive).
For the molecule `O=c1[nH]c(=O)n(C2CC(O)C(CO)O2)cc1OC/C=C/Cc1ccccc1` (configuration not stated), the GI50 with CCRF-CEM, in the assay on HCT-116, in the assay on RXF 393, in the assay with KM12, in the assay on SK-OV-3 and in the assay on TK-10 was > 100 µM (inactive) in each case. In addition, the GI50 in the assay with LOX IMVI, in the assay with COLO 205, in the assay on M14, in the assay with K562, in the assay with NCI/ADR-RES and in the assay on BT-549 was > 100 µM (inactive) throughout. In addition, the GI50 in the assay on A549, in the assay with 786-0, with MOLT-4, with Malme-3M, in the assay on SF-295 and with OVCAR-4 was > 100 µM (inactive) in each case.
Take `CC(C)CC(NC(=O)OCc1ccccc1)C(=O)NCCCCC(NC(=O)C(CCCCNC(=O)C(CC(C)C)NC(=O)OCc1ccccc1)NC(=O)C(CCCCNC(=O)C(CC(C)C)NC(=O)OCc1ccccc1)NC(=O)C(CCCCNC(=O)C(CC(C)C)NC(=O)OCc1ccccc1)NC(=O)OC(C)(C)C)C(=O)O` (configuration not stated) (Boc-K([Leu-Cbz])K([Leu-Cbz])K([Leu-Cbz])K([Leu-Cbz])-OH; configuration not given here): the GI50 in the assay with CCRF-CEM, with HCT-116, with MDA-N, in the assay with TK-10, in the assay with LOX IMVI and in the assay on M14 was > 25 µM (inactive) each time. For the same molecule, the GI50 with K562, in the assay on BT-549, in the assay on A549, with 786-0, with MOLT-4 and in the assay on Malme-3M was > 25 µM (inactive) in each case. For the same molecule, the GI50 in the assay on OVCAR-4 was > 25 µM (inactive).
